In US12180226B2, “Spirotricycle RIPK1 inhibitors and methods of uses thereof” (Merck Sharp & Dohme LLC, priority 2021, dated 2024):
Where a name gives a salt, the structure may show the parent alone.

These compounds were tested against RIPK1 (recombinant GST-RIPK1 kinase domain, residues 1-327) (Homo sapiens (Human), UniProt Q13546) (assay: RIPK1-ADP-Glo Enzymatic Assay). Details: ADP-Glo; 25 nM GST-RIPK1, 300 μM ATP; assay lower limit ~25 nM; read-out: RIPK1 V0 Ec50.
Chain of RIPK1 (recombinant GST-RIPK1 kinase domain, residues 1-327) (Q13546 1-327): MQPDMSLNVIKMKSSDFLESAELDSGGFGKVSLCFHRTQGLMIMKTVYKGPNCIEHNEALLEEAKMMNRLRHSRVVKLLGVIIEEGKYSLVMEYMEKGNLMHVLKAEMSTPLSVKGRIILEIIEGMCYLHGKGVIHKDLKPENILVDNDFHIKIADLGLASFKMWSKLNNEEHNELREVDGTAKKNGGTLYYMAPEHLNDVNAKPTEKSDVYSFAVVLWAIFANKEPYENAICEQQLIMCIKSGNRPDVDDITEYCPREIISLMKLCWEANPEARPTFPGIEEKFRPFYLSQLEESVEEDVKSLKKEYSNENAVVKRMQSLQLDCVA
Assay type: biochemical
How it was run: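 Inhibition of ADP formation was measured after compound and enzyme (25 nM) were pre-incubated for 30 minutes at ambient temperature and the kinase reaction ran for 150 minutes at 300 μM ATP with dephosphorylated MBP substrate. EC50 values come from ten-point curves fitted non-linearly.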
For `N#Cc1ccc(N2CCC3(CC2)O[C@@H]2CC[C@@H](c4cc(F)cc(F)c4)N2C3=O)cc1F` [Example 4.18, 4-[(5′S,7a′R)-5′-(3,5-difluorophenyl)-3′-oxotetrahydro-1H,3′H-spiro[piperidine-4,2′-pyrrolo[2,1-b] [1,3]oxazol]-1-yl]-2-fluorobenzonitrile], the EC50 was < 25 nM. In the case of `O=C(c1cccc(F)c1F)N1CCC2(CC1)O[C@@H]1CC[C@@H](c3cc(F)cc(F)c3)N1C2=O` [Example 5.3, (5′S,7a′R)-1-(2,3-difluoro-benzene-1-carbonyl)-5′-(3,5-difluorophenyl)tetra-hydro3′H-spiro[piperidine-4,2′-pyrrolo[2,1-b][1,3]oxazol]-3′-one], the EC50 is reported as < 25 nM. With `O=C1N2[C@@H](CC[C@H]2c2ccccc2)OC12CN(c1ccnc3c(F)cnn13)C2` [Example 4.96, (5′S,7a′R)-1-(3-fluoropyrazolo[1,5-a]pyrimidin-7-yl)-5′-phenyltetrahydro-3′H-spiro[azetidine-3,2′-pyrrolo[2,1-b]oxazol]-3′-one, TFA salt] the EC50 was < 25 nM. `COc1ccnc(C(=O)N2CCC3(CC2)O[C@@H]2CC[C@@H](c4cc(F)cc(F)c4)N2C3=O)c1` [Example 6.91, (5′S,7a′R)-5′-(3,5-difluorophenyl)-1-(4-methoxypyridine-2-carbonyl)tetrahydro-3′H-spiro[piperidine-4,2′-pyrrolo[2,1-b] [1,3]oxazol]-3′-one] showed an EC50 of 706 nM. `N#Cc1cnc(N2CCC3(CC2)O[C@@H]2CC[C@@H](c4ccccc4)N2C3=O)n2ncnc12` [Example 4.241, 5-[(5′S,7a′R)-3′-oxo-5′-phenyltetrahydro-1H,3′H-spiro[piperidine-4,2′-pyrrolo[2,1-b] [1,3]oxazol]-1-yl][1,2,4]triazolo[1,5-c] pyrimidine-8-carbonitrile] was tested, and the EC50 was < 25 nM. Work on `Cn1nc(N2CCC3(CC2)O[C@@H]2CC[C@@H](c4ccccc4)N2C3=O)ccc1=O` [Example 11.7, (5′S,7a′R)-1-(1-methyl-6-oxo-1,6-dihydropyridazin-3-yl)-5′-phenyltetrahydro-3′H-spiro[piperidine-4,2′-pyrrolo[2,1-b][1,3]oxazol]-3′-one] yielded an EC50 of 91.3 nM. Compound `O=C(Nc1ccccc1)N1CCC2(CC1)O[C@@H]1CC[C@@H](c3cc(F)cc(F)c3)N1C2=O` [Example 12.1, (5′S,7a′R)-5′-(3,5-Difluorophenyl)-3′-oxo-N-phenyltetrahydro-3′H-spiro[piperidine-4,2′-pyrrolo[2,1-b]oxazole]-1-carboxamide] has an EC50 of 537 nM. For `O=C(c1ncnc2c1CCC2)N1CCC2(CC1)O[C@@H]1CC[C@@H](c3cc(F)cc(F)c3)N1C2=O` [Example 6.15, (5′S,7a′R)-5′-(3,5-difluorophenyl)-1-(6,7-dihydro-5H-cyclopenta[d]pyrim-idine-4-carbonyl)-tetrahydro-3′H-spiro [piperidine-4,2′-pyrrolo-[2,1-b][1,3]oxazol]-3′-one], the EC50 was 547 nM. In the case of `Cc1cccc(C(=O)N2CCC3(CC2)O[C@@H]2CC[C@@H](c4ccccc4)N2C3=O)c1F` [Example 6.157, (5′S,7a′R)-1-(2-fluoro-3-methylbenzene-1-carbonyl)-5′-phenyl-tetrahydro-3′H-spiro [piperidine-4,2′-pyrrolo[2,1-b][1,3]-oxazol]-3′-one], the EC50 is reported as < 25 nM. In the case of `N#Cc1ccc(N2CCC3(CC2)O[C@@H]2CC[C@@H](c4cc(F)cc(F)c4)N2C3=O)nc1` [Example 4.44, 6-[(5′S,7a′R)-5′-(3,5-difluorophenyl)-3′-oxotetrahydro-1H,3′H-spiro[piperidine-4,2′-pyrrolo[2,1-b] [1,3]oxazol]-1-yl]pyridine-3-carbonitrile], the EC50 is reported as < 25 nM. In the case of `O=C1N2[C@@H](CC[C@H]2c2ccccc2F)OC12CN(c1ccnc(-c3cnn(C(F)F)c3)c1)C2` [Example 4.138, (5′S,7a′R)-1-{2-[1-(difluoromethyl)-1H-pyrazol-4-yl]pyridin-4-yl}-5′-(2-fluorophenyl)tetrahydro-3′H-spiro[azetidine-3,2′-pyrrolo[2,1-b] [1,3]oxazol]-3′-one], the EC50 is reported as 145 nM. For `CC(=O)c1cnc(N2CCC3(CC2)O[C@@H]2CC[C@@H](c4ccccc4)N2C3=O)cc1Cl` [Example 4.186, (5′S,7a′R)-1-(5-acetyl-4-chloropyridin-2-yl)-5′-phenyltetrahydro-3′H-spiro[piperidine-4,2′-pyrrolo[2,1-b] [1,3]oxazol]-3′-one], the EC50 was < 25 nM. For `C#Cc1cccc(C(=O)N2CCC3(CC2)O[C@@H]2CC[C@@H](c4cccc(F)c4)N2C3=O)c1` [Example 6.123, (5′S,7a′R)-1-(3-ethynylbenzene-1-carbonyl)-5′-(3-fluoro-phenyl)tetrahydro-3′H-spiro[piperidine-4,2′-pyrrolo[2,1-b][1,3]oxazol]-3-one], the EC50 was < 25 nM. `N#Cc1cnc(N2CCC3(CC2)O[C@@H]2CC[C@@H](c4ccccc4F)N2C3=O)n2ncnc12` [Example 4.242, 5-[(5′S,7a′R)-5′-(2-fluorophenyl)-3′-oxotetrahydro-1H,3′H-spiro[piperidine-4,2′-pyrrolo[2,1-b] [1,3]oxazol]-1-yl] [1,2,4]triazolo[1,5-c] pyrimidine-8-carbonitrile] was tested, and the EC50 was < 25 nM. With `O=C1N2[C@@H](CC[C@H]2c2ccccc2F)OC12CCN(c1cc(Cl)ncn1)CC2` [Example 4.99, (5′S,7a′R)-1-(6-chloropyrimidin-4-yl)-5′-(2-fluorophenyl)tetrahydro-3′H-spiro[piperidine-4,2′-pyrrolo[2,1-b]oxazol]-3′-one] the EC50 was < 25 nM. In the case of `CC1CC2(CCN1c1ccnc3c(F)cnn13)O[C@@H]1CC[C@@H](c3ccccc3)N1C2=O` (stereo partly drawn) [Example 4.224, (4R,5′S,7a′R)-1-(3-fluoropyrazolo[1,5-a]pyrimidin-7-yl)-2-methyl-5′-phenyltetrahydro-3′H-spiro[piperidine-4,2′-pyrrolo[2,1-b] [1,3]oxazol]-3′-one], the EC50 is reported as < 25 nM. In the case of `N#Cc1ccc(N2CCC3(CC2)O[C@@H]2CC[C@@H](c4ccccc4)N2C3=O)n2ncc(-c3ncco3)c12` [Example 4.181, 3-(1,3-oxazol-2-yl)-7-[(5′S,7a′R)-3′-oxo-5′-phenyltetrahydro-1H,3′H-spiro[piperidine-4,2′-pyrrolo[2,1-b] [1,3]oxazol]-1-yl]pyrazolo[1,5-a] pyridine-4-carbonitrile], the EC50 is reported as 110 nM. In the case of `O=C1N2[C@@H](CC[C@H]2c2ccccc2)OC12CCN(c1ccc(-c3ncco3)c3ncnn13)CC2` [Example 4.180, (5′S,7a′R)-1-[8-(1,3-oxazol-2-yl)[1,2,4]triazolo[1,5-a]pyridin-5-yl]-5′-phenyltetrahydro-3′H-spiro[piperidine-4,2′-pyrrolo[2,1-b] [1,3]oxazol]-3′-one], the EC50 is reported as < 25 nM. `O=C1N2[C@@H](CC[C@H]2c2cc(F)cc(F)c2)OC12CCN(c1cncc3nccn13)CC2` [Example 13.8, (5′S,7a′R)-5′-(3,5-difluorophenyl)-1-(imidazo[1,2-a]pyrazin-5-yl)tetrahydro-3′H-spiro[piperidine-4,2′-pyrrolo[2,1-b]oxazol]-3′-one, TFA salt] gave an EC50 of 664 nM. With `O=C1N2[C@@H](CC[C@H]2c2ccccc2)OC12CCN(c1ccc(-c3cc4n(n3)CCC4)c3ncnn13)CC2` [Example 21.18, (5′S,7a′R)-1-[8-(5,6-dihydro-4H-pyrrolo[1,2-b]pyrazol-2-yl)[1,2,4]triazolo[1,5-a]pyridin-5-yl]-5′-phenyltetrahydro-3′H-spiro[piperidine-4,2′-pyrrolo[2,1-b][l,3]oxazol]-3′-one] the EC50 was < 25 nM. `O=C1N2[C@@H](CC[C@H]2c2cncc(F)c2)OC12CCN(c1ccnc3c(F)cnn13)CC2` [Example 4.49, (5′S,7a′R)-1-(3-fluoropyrazolo[1,5-a]pyrimidin-7-yl)-5′-(5-fluoropyridin-3-yl)tetrahydro-3′H-spiro[piperidine-4,2′-pyrrolo[2,1-b] [1,3]oxazol]-3′-one] was tested, and the EC50 was < 25 nM. `CSc1cc(N2CCC3(CC2)O[C@@H]2CC[C@@H](c4ccccc4)N2C3=O)ncn1` [Example 4.27, (5′S,7a′R)-1-[6-(methylsulfanyl)pyrimidin-4-yl]-5′-phenyltetrahydro-3′H-spiro[piperidine-4,2′-pyrrolo[2,1-b] [1,3]oxazol]-3′-one] gave an EC50 of 18 nM. With `Cc1nc(N2CCC3(CC2)O[C@@H]2CC[C@@H](c4cccc(F)c4)N2C3=O)ccc1C#N` [Example 4.77, 6-[(5′S,7a′R)-5′-(3-fluorophenyl)-3′-oxotetrahydro-1H,3′H-spiro[piperidine-4,2′-pyrrolo[2,1-b] [1,3]oxazol]-1-yl]-2-methylpyridine-3-carbonitrile] the EC50 was < 25 nM. For `N#Cc1cnc(N2CCC3(CC2)O[C@@H]2CC[C@@H](c4ccccc4)N2C3=O)cc1OC(F)F` [Example 4.206, 4-(difluoromethoxy)-6-[(5′S,7a′R)-3′-oxo-5′-phenyltetrahydro-1H,3′H-spiro[piperidine-4,2′-pyrrolo[2,1-b] [1,3]oxazol]-1-yl]pyridine-3-carbonitrile], the EC50 was < 25 nM. In the case of `O=C1N2[C@@H](CC[C@H]2c2cccc(F)c2)OC12CCN(c1cc(F)ccn1)CC2` [Example 4.126, (5′S,7a′R)-5′-(3-fluorophenyl)-1-(4-fluoropyridin-2-yl)tetrahydro-3′H-spiro[piperidine-4,2′-pyrrolo[2,1-b] [1,3]oxazol]-3′-one], the EC50 is reported as 46.7 nM. With `CC(C)(O)C#Cc1cccc(C(=O)N2CCC3(CC2)O[C@@H]2CC[C@@H](c4cc(F)cc(F)c4)N2C3=O)c1` [Example 5.24, (5′S,7a′R)-5′-(3,5-difluoro-phenyl)-1-(3-(3-hydroxy-3-methylbut-1-yn-1-yl)-benzoyl)tetrahydro-3′H-spiro[piperidine-4,2′-pyrrolo[2,1-b]oxazol]-3′-one] the EC50 was < 25 nM. For `O=C1N2[C@@H](CC[C@H]2c2ccccc2F)OC12CN(c1ncco1)C2` [Example 4.272, (5′S,7a′R)-5′-(2-fluorophenyl)-1-(1,3-oxazol-2-yl)tetrahydro-3′H-spiro[azetidine-3,2′-pyrrolo[2,1-b] [1,3]oxazol]-3′-one], the EC50 was 931 nM.
